Experiments:
Type in all cases: binding
Kappa opioid receptor = Kappa opioid receptor (Homo sapiens, UniProt P41145); assay: Opioid receptor affinity, NIMH PDSP screen, Kappa subtype
Description: (§1) The compound of Example 7 was tested for activity vs. opioid receptor subtypes, at an initial concentration of 10 μM, through the NIMH Psychoactive Drug Screening Program (PDSP), operated by Dr. Bryan Roth and his colleagues in the Department of Pharmacology at the University of North Carolina (Chapel Hill, N.C.) through an agreement with the National Institute of Mental Health (NIMH).

Mu opioid receptor = Mu opioid receptor (Homo sapiens, UniProt P35372); assay: Opioid receptor affinity, NIMH PDSP screen, Mu subtype
Mu opioid receptor, sequence (P35372 whole entry, species assumed): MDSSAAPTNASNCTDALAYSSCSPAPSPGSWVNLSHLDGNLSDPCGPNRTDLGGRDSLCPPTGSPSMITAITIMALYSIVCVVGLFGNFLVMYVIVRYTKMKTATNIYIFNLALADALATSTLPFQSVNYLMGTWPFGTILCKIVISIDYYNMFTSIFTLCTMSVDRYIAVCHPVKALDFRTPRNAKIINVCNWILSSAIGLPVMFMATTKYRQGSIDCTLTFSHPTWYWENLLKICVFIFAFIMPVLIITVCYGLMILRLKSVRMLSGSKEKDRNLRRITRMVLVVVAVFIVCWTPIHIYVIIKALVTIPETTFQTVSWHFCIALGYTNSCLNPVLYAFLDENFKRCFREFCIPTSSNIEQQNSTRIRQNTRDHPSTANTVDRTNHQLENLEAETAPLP
Description: as §1

Delta opioid receptor = Delta opioid receptor (Homo sapiens, UniProt P41143); assay: Opioid receptor affinity, NIMH PDSP screen, Delta subtype
Delta opioid receptor, sequence (P41143 whole entry): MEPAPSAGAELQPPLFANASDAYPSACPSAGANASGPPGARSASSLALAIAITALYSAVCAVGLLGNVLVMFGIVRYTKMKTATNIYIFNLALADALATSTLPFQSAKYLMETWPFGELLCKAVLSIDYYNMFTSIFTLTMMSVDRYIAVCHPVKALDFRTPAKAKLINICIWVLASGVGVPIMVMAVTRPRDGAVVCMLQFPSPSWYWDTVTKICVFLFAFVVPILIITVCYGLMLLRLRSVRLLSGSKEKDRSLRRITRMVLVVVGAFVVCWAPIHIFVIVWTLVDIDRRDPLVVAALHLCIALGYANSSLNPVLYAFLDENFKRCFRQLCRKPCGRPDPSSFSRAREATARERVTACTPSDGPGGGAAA
Description: as §1

Kappa opioid receptor, sequence (P41145 whole entry): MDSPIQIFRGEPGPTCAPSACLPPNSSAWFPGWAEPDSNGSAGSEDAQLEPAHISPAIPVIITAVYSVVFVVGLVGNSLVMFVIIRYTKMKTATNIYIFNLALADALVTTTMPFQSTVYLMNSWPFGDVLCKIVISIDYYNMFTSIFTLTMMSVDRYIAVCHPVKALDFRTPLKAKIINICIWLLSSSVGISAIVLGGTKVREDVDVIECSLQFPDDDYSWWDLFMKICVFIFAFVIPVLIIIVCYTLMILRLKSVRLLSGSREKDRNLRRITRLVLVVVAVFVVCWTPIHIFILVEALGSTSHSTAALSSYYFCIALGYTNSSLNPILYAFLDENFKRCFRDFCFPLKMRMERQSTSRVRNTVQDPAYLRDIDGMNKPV

Compound `CN(C)CCCC1(c2ccc(F)cc2)OCc2cc(-c3ncc[nH]3)ccc21` (stereo not shown) [Example 7] has a Ki (Kappa opioid receptor) of 47 nM, an inhibition at 10 µM (Kappa opioid receptor; 10 μM) of 100% and an inhibition at 10 µM (Mu opioid receptor) of 39.1%. It also gave an inhibition at 10 µM (Delta opioid receptor) of 23.5%.
